Source: patent publication US11617777B2, “Cytotoxic and anti-mitotic compounds, and methods of using the same” (ZYMEWORKS BC INC., priority 2013, dated 2023)

Tests used:
Jurkat cells [1] = experiment: Cytotoxicity of compounds, CellTiter-Glo; assay type: cell-based, Human; conditions: Homo sapiens, Jurkat
How it was run: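 HCC1954 plated at 2500 cells/100 uL and attached overnight; Jurkat plated at 2500 cells/100 uL on the day of dosing. Cells exposed to 8-step 1:3 compound titrations for three nights at 37° C./5% CO2, in triplicate. CellTiter-Glo luminescence converted to % cytotoxicity versus medium-only control; EC50 by three-parameter nonlinear regression.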

HCC1954 cells [2] = experiment: Cytotoxicity assay of SMCC- and LC-SPDP-linked ADCs and free compounds; assay type: cell-based; conditions: Homo sapiens
Protocol: (§1) The purified ADCs were then analysed for: total protein content (BCA assay, Pierce microBCA protocol), relative affinity for antigen binding (equilibrium native binding), and selective cytotoxic killing of HER2-positive cells (HCC1954) compared HER2-negative cells (Jurkat).
(§2) On the day prior to adding test articles, HCC1954 cells were added to opaque-walled 96-well tissue culture-treated microtiter plates using complete growth medium at a density of 2500 cells/100 microlitre (uL) of medium. The HCC1954 cells were incubated for one night at 37° C./5% CO2 to allow the cells to attach to the microtiter plate surface. On the day that test articles were added, Jurkat cells are added to separate 96-well microtiter plates at 2500 cells/100 uL using the same growth medium as HCC1954. To compare the ADC killing to that obtained from the free-compounds, the n-acyl sulfonamide compounds were first serially diluted using dimethyl sulfoxide or DMA, and then the prepared dilutions are added to complete growth medium at five-times the final concentration—compounds were then titrated 1:3, eight steps. To test the ADCs, they were diluted directly in growth medium at five-times the final concentration—ADCs were then titrated 1:3, eight steps. A control with no test article present (growth medium alone) was included on each microtiter plate in sextuplicate. The prepared compound/ADC titrations were added (twenty-five uL/well) in triplicate to both the HCC1954 cells and Jurkat cells. The cells and titrations were incubated at 37° C./5% CO2 for three nights. After the incubation, cell viability was measured using CellTiter-Glo® reagent by adding thirty uL of prepared CellTiter-Glo® to each assay well. The assay was incubated for at least twenty minutes in the dark prior to measuring emitted luminescence using a microplate luminometer (500 ms integration time). The collected relative luminescence units (RLU) were converted to % cytotoxicity using the Growth medium alone control mentioned above (% Cytotoxicity=1−[Well RLU/average medium alone control RLU]).

Jurkat cells [3] = experiment: as above; assay type: cell-based; conditions: Homo sapiens
Protocol: as §1, §2

HCC1954 cells [4] = experiment: Cytotoxicity of compounds, CellTiter-Glo; assay type: cell-based; conditions: Homo sapiens
Excerpt: (§3) Cell lines used: Human T-cell leukemia cell line Jurkat (ATCC: TIB-152); HCC1954 (ATCC: CRL. 2338); Human Pancreatic cells lines: AsPC-1 (ATCC: CRL-1682), BxPC-3 (ATCC: CRL.1687), HPAF-II (ATCC: CRL.1997), MiaPaCa2 (ATCC: CRL.1420), PANC-1 (ATCC: CRL.1469), Capan-1 (ATCC: HTB-79), Capan-2 (ATCC: HTB-80) and the Human gastric carcinoma cell line NCI-N87 (ATCC: CRL. 5822); AML-193 (ATCC: CRL.9589), CCRF-CEM (ATCC: CCL-119), DU145 (ATCC: HTB-81), PC-3 (ATCC: CRL.1435), A-431 (ATCC: CRL.1555), HT-29 (ATCC: HTB-38), A-172 (ATCC: CRL.1620), NCI-H358 (ATCC: CRL.5807), A549 (ATCC: CCL-185), Colo-205 (ATCC: CCL-222), MDA-MB-231 (ATCC: HTB-26), OVCAR-3 (ATCC: HTB-161), OV-90 (ATCC: CRL.11732), OE19 (Sigma: 96071721), RT 112/84 (Sigma: 85061106).
(§4) On the day prior to adding compounds, HCC1954 AsPC-1, BxPC-3, HPAF-II, MiaPaCa2, PANC-1, Capan-1, Capan-2 and NCI-N87 cells were added to opaque-walled 96-well tissue culture-treated microtiter plates using complete growth medium at a density of 2500 cells/100 microlitre (uL) of medium. These adherant cell lines cells were incubated for one night at 37° C./5% CO2 to allow the cells to attach to the microtiter plate surface. On the day that compounds were added, Jurkat cells are added to separate 96-well microtiter plates at 2500 cells/100 uL using the same growth medium as HCC1954. Compound were first serially diluted using dimethyl sulfoxide, and then the prepared dilutions are added to complete growth medium at five-times the final concentration—compounds were then titrated 1:3, eight steps. A control with no compound (growth medium alone) was included on each microtiter plate in sextuplicate. The prepared compounds titrations were added (twenty-five uL/well) in triplicate. The cells and compound titrations were incubated at 37° C./5% CO2 for three nights. After the incubation, cell viability is measured using CellTiter-Glo® reagent by adding thirty uL of prepared CellTiter-Glo® to each assay well. The assay is incubated for at least twenty minutes in the dark prior to measuring emitted luminescence using a microplate luminometer (500 ms integration time). The collected relative luminescence units (RLU) are converted to % cytotoxicity using the Growth medium alone control mentioned above (% Cytotoxicity=1−[Well RLU/average medium alone control RLU]).
(§5) GraphPad Prism was used for generation of EC50 values using three parameter non-linear regression curve fitting.

MiaPaCa2 = experiment: Cytotoxicity of compounds, CellTiter-Glo; assay type: cell-based; conditions: Homo sapiens, MIA PaCa-2; Table 5; MinPaCa2; read-out: Cytotoxicity (EC50) MinPaCa2
Excerpt: (§6) FIG. 1 summarizes the data for compounds A, B, C, D, and E when tested using the Human mammary carcinoma cell line HCC1954 or Human T-cell leukemia cell line Jurkat. FIGS. 2-6 show the cytotoxicity data plots for individual compounds A-E. Tables 2-6 summarize the results of additional cytotoxicity assays.
as §3, §4, §5

PANC-1 = experiment: Cytotoxicity of compounds, CellTiter-Glo; assay type: cell-based; conditions: Homo sapiens, Table 5, read-out: Cytotoxicity (EC50) PANC-1
Excerpt: as §6, §3, §4, §5

HPAF-II = experiment: Cytotoxicity of compounds, CellTiter-Glo; assay type: cell-based; conditions: Homo sapiens, Table 5, read-out: Cytotoxicity (EC50) HPAF-II
Excerpt: as §6, §3, §4, §5

BxPC-3 = experiment: Cytotoxicity of compounds, CellTiter-Glo; assay type: cell-based; conditions: Homo sapiens, Table 5, read-out: Cytotoxicity (EC50) BxPC-3
Excerpt: as §6, §3, §4, §5

AsPC-1 = experiment: Cytotoxicity of compounds, CellTiter-Glo; assay type: cell-based; conditions: Homo sapiens, ASPC1, Table 5, read-out: Cytotoxicity (EC50) AsPC-1
Excerpt: as §6, §3, §4, §5

NCI-N87 = experiment: Cytotoxicity of compounds, CellTiter-Glo; assay type: cell-based; conditions: Homo sapiens, Table 5, read-out: Cytotoxicity (EC50) NCI-N87
Excerpt: as §6, §3, §4, §5

[5] = Table 1, Jurkat cells (HER2−), three nights, read-out: Jurkat cells (HER2−) EC50
[6] = Table 3, Cytotoxicity of Compounds on Jurkat Cells, read-out: EC50
[7] = HCC1954, Table 10, Coupling #2, read-out: HCC1954 Best-fit EC50
[8] = Table 10, Coupling #2, read-out: Jurkat Best-fit EC50
[9] = HCC1954, Table 4, Cytotoxicity of Compounds on HCC-1954 Cells, read-out: EC50
[10] = Table 1, HCC1954 cells (HER2+), three nights, read-out: HCC1954 cells (HER2+) EC50
[11] = Table 2, HCC1954, read-out: HCC1954 EC50

SMILES	EC50 (Jurkat cells [1]; [5]) [nM]	EC50 (Jurkat cells [1]; Table 2, read-out: Jurkat EC50) [nM]	EC50 (Jurkat cells [1]; [6]) [nM]	EC50 (HCC1954 cells [2]; HCC1954, Table 9, Coupling #1, read-out: HCC1954 Best-fit EC50) [nM]	EC50 (HCC1954 cells [2]; [7]) [nM]	EC50 (Jurkat cells [3]; Table 9, Coupling #1, read-out: Jurkat Best-fit EC50) [nM]	EC50 (Jurkat cells [3]; [8]) [nM]	EC50 (HCC1954 cells [4]; [9]) [nM]	EC50 (HCC1954 cells [4]; [10]) [nM]	EC50 (HCC1954 cells [4]; [11]) [nM]	EC50 (MiaPaCa2) [nM]	EC50 (PANC-1) [nM]	EC50 (HPAF-II) [nM]	EC50 (BxPC-3) [nM]	EC50 (AsPC-1) [nM]	EC50 (NCI-N87) [nM]
CN[C@H](C(=O)N[C@H](C(=O)N(C)[C@H](/C=C(\C)C(=O)NS(=O)(=O)CCS)C(C)C)C(C)(C)C)C(C)(C)c1ccccc1 [Compound B, (S,E)-N-(2-mercaptoethylsulfonyl)-2,5-dimethyl-4-((S)—N,3,3-trimethyl-2-((S)-3-methyl-2-(methylamino)-3-phenylbutanamido)butanamido)hex-2-enamide]	10.5	59	59	8.1	9.2	10	36	13	8.1	13	–	–	–	–	–	–
CN[C@H](C(=O)N[C@H](C(=O)N(C)[C@H](/C=C(\C)C(=O)NS(=O)(=O)c1ccc(CS)cc1)C(C)C)C(C)(C)C)C(C)(C)c1ccccc1 [Compound C, (S,E)-N-(4-(mercaptomethyl)phenylsulfonyl)-2,5-dimethyl-4-((S)—N,3,3-trimethyl-2-((S)-3-methyl-2-(methylamino)-3-phenylbutanamido)butanamido)hex-2-enamide]	0.57	1.9	1.9	–	0.67	–	0.57	1.3	0.67	1.3	–	–	–	–	–	–
CN[C@H](C(=O)N[C@H](C(=O)N(C)[C@H](/C=C(\C)C(=O)NS(=O)(=O)c1ccc(C)cc1)C(C)C)C(C)(C)C)C(C)(C)c1ccccc1 [Compound D, (S,E)-2,5-dimethyl-N-tosyl-4-((S)—N,3,3-trimethyl-2-((S)-3-methyl-2-(methylamino)-3-phenylbutanamido)butanamido)hex-2-enamide]	0.043	0.04	0.033	–	–	–	–	0.06	–	0.06	0.136	0.806	0.177	0.0664	0.17	0.272
